Patent publication US11986478B2 (priority 2021, dated 2024)

What was measured:
[1] = tested on: SARS-CoV-2 variants of concern B.1.1.7 (Alpha), B.1.351 (Beta) and B.1.617.2 (Delta); assay: microbe, parasite or virus in culture; assay type: cell-based; settings: Severe acute respiratory syndrome coronavirus 2, VeroE6/TMPRSS2, read-out: EC50 against SARS-CoV-2 variants of concern
[2] = molecular target: SARS2-PLpro K157A mutant (Severe acute respiratory syndrome coronavirus 2, UniProt P0DTD1, K1720A); assay type: biochemical, SARS-CoV-2

O=C(Nc1ccccc1Cl)c1sc(=S)n2c1[nH]c(=O)c1ccccc12 [Compound F0213]
EC50 [1]: 2.2 to 4.8 µM
effect of K157A substitution on inhibitory potency [2]: significantly diminished the inhibitory potency
